This is an account of results in patent publication US20050069544A1, “Pharmaceutical composition and a method of treatment” (priority 1998, published 2005).

For test [1], the system named is CD3+ CD4+ T-helper cells of AIHA patients. In words: Flow cytometry of CD3, CD4 and intracellular cytokines in PBMC from AIHA patients. The class given is cell-based, human. Particulars: AIHA patient; FIGS. 24B to 24E. How it is done: The secretion of cytokines identified in Example 1.3 by T-helper cells is confirmed by flow cytometery analysis. Simultaneous measurement of surface molecules CD3 and CD4 and intracellular cytokines IFN-γ or IL-10 was carried out using three colour flow cytometry analysis in PBMC, isolated from RhD-alloimmunised donors, cultured with either no antigen or RhD peptide for five days after stimulation. All analysis was carried out using Expo v2 analysis software (applied Cytometry Systems). The CD3+ T-cells were gated open and the numbers of IFN-γ+ and CD4+ cells were assessed. In all donors tested there was a significant increase in the proportion of CD4+ IFN-γ+CD3+ T-cells to at least one of the RhD peptides tested. In the representative example shown in FIGS. 12A to 12L it can be seen that the proportion of CD4+ IFN-γ+cells was 4.2% in unstimulated cultures (FIG. 12E). […] The IL-10 and CD4+ expression was also assessed on CD3+ gated population of T-cells. In PBMC cultures isolated from the alloimmune donor shown, there was an increase in the proportion of CD4+ IL-10+T-cells from 2.4% in unstimulated PBMC cultures (FIG. 12I) to 6.5% in culture stimulated with RhD peptide 13 (FIG. 12J) to 6.2% in cultures stimulated with RhD peptide 17 (FIG. 12K) and 5.9% with RhD peptide 28 (FIG. 12L).
The secretion of cytokines identified in Example 2.3 by T-cells is confirmed utilising the experiments mentioned in Example 1.4, which were repeated using PBMC isolated from patients with AIHA.
(In general: In flow cytometry, cells or beads pass a laser one at a time.)

A further test concerns PBMC from AIHA patients. The experiment in a line: celELISA of cytokine production by PBMC from AIHA patients. The format is cell-based, human. The note with it: AIHA patient (AIHA26); FIG. 24A. Here is the method: Cultured T-cells are stimulated with each of the epitopes given in Table 1 and after 5 days the responding cells were transferred to flat-bottomed microtitre plates (96-well Nunc-Immuno Maxisorp) coated with […] per well of monoclonal anti-cytokine capture antibody diluted in 0.05M alkaline carbonate coating buffer pH 9.6. Unbound capture antibody was removed by two washes with HBSS and non-specific binding potential blocked by incubation with 200 μl per well of phosphate buffered saline, pH 7.4 (PBS containing 3% BSA). […]
After six washes with 0.5% Tween/PBS, 100 μl of 1:100,000 ExtrAvidin-alkaline phosphatase conjugate (Sigma) was then added to each of the wells and incubated at room temperature for 30 minutes. […] The absorbance at 405 nm was then measured using a Multiscan plate reader (Labsystems Basingstoke UK).
Cytokine secretion was measured by interpolation from a standard curve generated by incubating duplicate wells with doubling dilutions of recombinant human IFN-γ or IL-10 or TGF-β (Pharmingen). The standard curves were modelled by a smoothed cubic spline function applied to the absorbance reading and the cytokine concentrations after a quasilogarithmic transformation, where: quasiloge(z)=loge[z+{square root}[z^2+1]). […]

Take “WMFWPSFNSALLRSP (Residue 217-231 RhD; listed as Homo sapiens) [compound 36]”: in test [1], the “CD3+ CD4+ T helper cells expressing intracellular IL-10” value is “expansion of a CD3+ CD4+population of T helper cells”. Further, the “IL-10 production by PBMC” value in the test on PBMC from AIHA patients was “induces the production of IL-10”.
